Data reported in paper PMC5487684, “Safety, Pharmacokinetics, and Antiviral Activity of a Novel HIV Antiviral, ABX464, in Treatment-Naive HIV-Infected Subjects in a Phase 2 Randomized, Controlled Study” (Antimicrobial Agents and Chemotherapy, 2017).

Tested on: HIV-infected subjects
Experiment: Safety and tolerability (TEAEs, ECG, laboratory) after repeated oral administration, phase 2a study
Type: in vivo, human
Details: for Subjects experiencing at least one TEAE: Abdominal pain / Subjects experiencing at least one TEAE: Arthralgia / Subjects experiencing at least one TEAE: Back pain / Subjects experiencing at least one TEAE: Diarrhea / Subjects experiencing at least one TEAE: Flank pain / Subjects experiencing at least one TEAE: Gastrointestinal disorders / Subjects experiencing at least one TEAE: Headache / Subjects experiencing at least one TEAE: Injury, poisoning, and procedural complications / Subjects experiencing at least one TEAE: Musculoskeletal and connective tissue disorders / Subjects experiencing at least one TEAE: Nausea / Subjects experiencing at least one TEAE: Neck pain / Subjects experiencing at least one TEAE: Nervous system disorders / Subjects experiencing at least one TEAE: Pain in extremity / Subjects experiencing at least one TEAE: Sciatica, back pain / Subjects experiencing at least one TEAE: Skin abrasion / Subjects experiencing at least one TEAE: Total / Subjects experiencing at least one TEAE: Upper abdominal pain / Subjects experiencing at least one TEAE: Vomiting: fasted
Experimental: Participants were assigned to one of eight groups; each group (with one exception) included eight subjects receiving either ABX464 (n = 6) or the corresponding placebo (n = 2) according to a randomization code. […] In the present study with HIV-infected subjects, the first dose administered was 25 mg, given once or 3 times a day over a 2- to 3-week period. This initial dose was therefore considered safe for assessment of the safety and tolerability of ABX464 after repeated oral administrations in subjects infected by HIV and determination of the potential effect on the HIV viral load.
The final dosing protocol for each of the eight groups was as follows: group 1, 25 mg every 3 days for 2 to 3 weeks under fasted conditions; group 2, 25 mg once a day (q.d.) for 2 to 3 weeks under fasted conditions; group 3, 50 mg once a day for 2 to 3 weeks under fasted conditions; group 4, 50 mg 3 times a day (t.i.d.) for 4 weeks under fed conditions; group 5, 75 mg once a day for 2 weeks under fed conditions; group 6, 100 mg once a day for 2 to 3 weeks under fasted conditions; group 7, 150 mg every 3 days for 2 to 3 weeks under fed conditions; and group 8, 150 mg once a day for 2 weeks under fed conditions. Per the study protocol, the treatment period was defined as 2 weeks. […] The decision to proceed to the next highest dose was determined by the data and safety monitoring board after review of the laboratory safety data, vital signs, ECGs, and adverse event reports from the group receiving the current dose after 2 weeks of treatment.
Subjects were hospitalized from the day prior to the first dose to at least the morning of day 2. They were orally dosed with 25-mg capsules of ABX464 with 240 ml water under fed or fasted conditions. According to the group, subjects were dosed with 1, 2, 3, 4, or 6 capsules to deliver 25 mg, 50 mg, 75 mg, 100 mg, or 150 mg product, respectively, or the same number of placebo capsules.
Safety assessments and laboratory tests were carried out according to the schedules described in Table S4 for groups dosed every day, every 3 days, and 3 times a day. Follow-up visits were scheduled for 7 days after the last dose and subsequently once every week in order to assess the elimination of the main ABX464 metabolite and to assess the viral load. Follow-up visits were terminated when the virus load was within 0.5 log of the baseline value or after 3 follow-up visits, whichever came first. Prior to the statistical analyses, AEs were coded using the Medical Dictionary for Regulatory Activities (MedDRA dictionary; last available version) in order to be tabulated by system organ class (SOC) and preferred term (PT). The AEs were analyzed according to the treatment emergence phase from the first study drug administration on day 1 up to 48 h after the last study drug administration. The number and percentage of subjects with at least one TEAE were tabulated by SOC and PT for each group and dose. The number of occurrences of TEAEs was also analyzed in the same way by SOC and PT for each group and dose, by grade of severity for each group and dose, and by level of causality to the study drug for each group and dose.

[1] = Group 1 (n = 6), 25 mg every 3 days, Mild
[2] = Group 1 (n = 6), 25 mg every 3 days, Moderate
[3] = Group 2 (n = 6), 25 mg q.d., Mild
[4] = Group 2 (n = 6), 25 mg q.d., Moderate

## FC(F)(F)Oc1ccc(Nc2ccc3cccc(Cl)c3n2)cc1 [ABX464]
75 mg q.d.
  Nausea frequency: 66.7%
75 mg q.d. under fed conditions, one episode of moderate intensity
  Subjects with a skin rash episode: two
150 mg every 3 days
  Subjects with vomiting episodes: 50.0%
150 mg q.d.
  Nausea frequency: 100%
16 subjects overall, no vomiting episodes in placebo
  Subjects reporting vomiting: 32%
ABX464 treatment group
  Severity of adverse events: mild to moderate
  TEAEs leading to treatment discontinuation: none of the TEAEs led to treatment discontinuation
ABX464 treatment groups
  Subjects reporting at least one episode of headache: 56%
[1]
  Subjects experiencing at least one TEAE: Abdominal pain: 0 (0.0) No. (%)
  Subjects experiencing at least one TEAE: Arthralgia: 0 (0.0) No. (%)
  Subjects experiencing at least one TEAE: Back pain: 0 (0.0) No. (%)
  Subjects experiencing at least one TEAE: Diarrhea: 0 (0.0) No. (%)
  Subjects experiencing at least one TEAE: Flank pain: 0 (0.0) No. (%)
  Subjects experiencing at least one TEAE: Gastrointestinal disorders: 2 (33.3) No. (%)
  Subjects experiencing at least one TEAE: Headache: 0 (0.0) No. (%)
  Subjects experiencing at least one TEAE: Injury, poisoning, and procedural complications: 0 (0.0) No. (%)
  Subjects experiencing at least one TEAE: Musculoskeletal and connective tissue disorders: 0 (0.0) No. (%)
  Subjects experiencing at least one TEAE: Nausea: 1 (16.7) No. (%)
  Subjects experiencing at least one TEAE: Neck pain: 0 (0.0) No. (%)
  Subjects experiencing at least one TEAE: Nervous system disorders: 0 (0.0) No. (%)
  Subjects experiencing at least one TEAE: Pain in extremity: 0 (0.0) No. (%)
  Subjects experiencing at least one TEAE: Sciatica, back pain: 0 (0.0) No. (%)
  Subjects experiencing at least one TEAE: Skin abrasion: 0 (0.0) No. (%)
  Subjects experiencing at least one TEAE: Total: 2 (33.3) No. (%)
  Subjects experiencing at least one TEAE: Upper abdominal pain: 0 (0.0) No. (%)
  Subjects experiencing at least one TEAE: Vomiting: 1 (16.7) No. (%)
[2]
  Subjects experiencing at least one TEAE: Abdominal pain: 0 (0.0) No. (%)
  Subjects experiencing at least one TEAE: Arthralgia: 0 (0.0) No. (%)
  Subjects experiencing at least one TEAE: Back pain: 0 (0.0) No. (%)
  Subjects experiencing at least one TEAE: Diarrhea: 0 (0.0) No. (%)
  Subjects experiencing at least one TEAE: Flank pain: 0 (0.0) No. (%)
  Subjects experiencing at least one TEAE: Headache: 0 (0.0) No. (%)
  Subjects experiencing at least one TEAE: Injury, poisoning, and procedural complications: 0 (0.0) No. (%)
  Subjects experiencing at least one TEAE: Musculoskeletal and connective tissue disorders: 1 (16.7) No. (%)
  Subjects experiencing at least one TEAE: Nausea: 0 (0.0) No. (%)
  Subjects experiencing at least one TEAE: Neck pain: 0 (0.0) No. (%)
  Subjects experiencing at least one TEAE: Nervous system disorders: 0 (0.0) No. (%)
  Subjects experiencing at least one TEAE: Pain in extremity: 0 (0.0) No. (%)
  Subjects experiencing at least one TEAE: Sciatica, back pain: 1 (16.7) No. (%)
  Subjects experiencing at least one TEAE: Skin abrasion: 0 (0.0) No. (%)
  Subjects experiencing at least one TEAE: Total: 2 (33.3) No. (%)
  Subjects experiencing at least one TEAE: Upper abdominal pain: 0 (0.0) No. (%)
  Subjects experiencing at least one TEAE: Vomiting: 0 (0.0) No. (%)
[3]
  Subjects experiencing at least one TEAE: Abdominal pain: 0 (0.0) No. (%)
  Subjects experiencing at least one TEAE: Arthralgia: 0 (0.0) No. (%)
  Subjects experiencing at least one TEAE: Back pain: 1 (16.7) No. (%)
  Subjects experiencing at least one TEAE: Diarrhea: 1 (16.7) No. (%)
  Subjects experiencing at least one TEAE: Flank pain: 0 (0.0) No. (%)
  Subjects experiencing at least one TEAE: Gastrointestinal disorders: 2 (33.3) No. (%)
  Subjects experiencing at least one TEAE: Headache: 1 (16.7) No. (%)
  Subjects experiencing at least one TEAE: Injury, poisoning, and procedural complications: 0 (0.0) No. (%)
  Subjects experiencing at least one TEAE: Musculoskeletal and connective tissue disorders: 1 (16.7) No. (%)
  Subjects experiencing at least one TEAE: Nausea: 0 (0.0) No. (%)
  Subjects experiencing at least one TEAE: Neck pain: 0 (0.0) No. (%)
  Subjects experiencing at least one TEAE: Nervous system disorders: 1 (16.7) No. (%)
  Subjects experiencing at least one TEAE: Pain in extremity: 0 (0.0) No. (%)
  Subjects experiencing at least one TEAE: Sciatica, back pain: 0 (0.0) No. (%)
  Subjects experiencing at least one TEAE: Skin abrasion: 0 (0.0) No. (%)
  Subjects experiencing at least one TEAE: Total: 2 (33.3) No. (%)
  Subjects experiencing at least one TEAE: Upper abdominal pain: 0 (0.0) No. (%)
  Subjects experiencing at least one TEAE: Vomiting: 2 (33.3) No. (%)
[4]
  Subjects experiencing at least one TEAE: Abdominal pain: 0 (0.0) No. (%)
  Subjects experiencing at least one TEAE: Arthralgia: 0 (0.0) No. (%)
  Subjects experiencing at least one TEAE: Back pain: 0 (0.0) No. (%)
  Subjects experiencing at least one TEAE: Diarrhea: 0 (0.0) No. (%)
  Subjects experiencing at least one TEAE: Flank pain: 0 (0.0) No. (%)
  Subjects experiencing at least one TEAE: Headache: 0 (0.0) No. (%)
  Subjects experiencing at least one TEAE: Injury, poisoning, and procedural complications: 0 (0.0) No. (%)
  Subjects experiencing at least one TEAE: Musculoskeletal and connective tissue disorders: 0 (0.0) No. (%)
  Subjects experiencing at least one TEAE: Nausea: 0 (0.0) No. (%)
  Subjects experiencing at least one TEAE: Neck pain: 0 (0.0) No. (%)
  Subjects experiencing at least one TEAE: Nervous system disorders: 0 (0.0) No. (%)
  Subjects experiencing at least one TEAE: Pain in extremity: 0 (0.0) No. (%)
  Subjects experiencing at least one TEAE: Sciatica, back pain: 0 (0.0) No. (%)
  Subjects experiencing at least one TEAE: Skin abrasion: 0 (0.0) No. (%)
